Details: in water

solubility (mole fraction) (285.15 K) | solubility (mole fraction) (292.15 K) | solubility (mole fraction) (298.15 K) | solubility (mole fraction) (306.15 K) | solubility (mole fraction) (313.15 K) | solubility (mole fraction) (320.15 K) | solubility (mole fraction) (327.15 K) | solubility (mole fraction) (333.15 K) | solubility (mole fraction) (339.15 K) | solubility (mole fraction) (344.15 K) | solubility (mole fraction) (348.15 K) | SMILES
0.087 | 0.103 | 0.117 | 0.137 | 0.153 | 0.172 | 0.188 | 0.2 | 0.211 | 0.218 | 0.222 | O=C(O)c1ccc([N+](=O)[O-])cc1C(=O)O
0.000774 | 0.000984 | 0.00141 | 0.00189 | 0.0026 | 0.00352 | 0.00467 | 0.00581 | 0.00713 | 0.00847 | 0.00955 | O=C(O)c1cccc([N+](=O)[O-])c1C(=O)O

From BigSolDB 2.1
